Data published in patent US7138361B2, “Herbicidal heterocycles” (E. I. du Pont de Nemours and Company, priority 2000, dated 2006).

Tests used:
Format in all cases: in vivo
[1] = test system: velvetleaf (Abutilon theophrasti); test: Test B preemergence; settings: scale 0 to 100, 0 no effect, 100 complete control
How it was run: (§1)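 Post-treatment, species sat 13–15 days under greenhouse conditions before visual scoring against controls, 0 (no effect) through 100 (complete control). Application preemergence to sown seeds or postemergence at 1- to 4-leaf stage, using a non-phytotoxic solvent/surfactant formulation.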

[2] = test system: barnyardgrass (Echinochloa crus-galli); test: Test B preemergence; settings: scale 0 to 100, 0 no effect, 100 complete control
How it was run: as §1

[3] = test system: morningglory (Ipomoea hederacea); test: Test C preemergence
How it was run: (§2)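 Preemergence: seeds sown then treated. Postemergence: plants 2–18 cm, 1- to 4-leaf. Both with surfactant-containing solvent formulation; visual injury scored 0–100 after 12–14 d.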

[4] = test system: woolly cupgrass (Eriochloa villosa); test: Test C preemergence
How it was run: as §2

[5] = test system: johnsongrass (Sorghum halepense); test: Test C preemergence
How it was run: as §2

Nightshade = test: Test C preemergence
[6] = test system: lambsquarters (Chenopodium album); test: Test C preemergence
How it was run: as §2

corn (Zea mays) = test: Test C preemergence
How it was run: as §2

[7] = test system: pigweed (Amaranthus retroflexus); test: Test C preemergence
How it was run: as §2

[8] = test system: Surinam grass (Brachiaria decumbens); test: Test C preemergence
How it was run: as §2

[9] = test system: giant foxtail (Setaria faberii); test: Test C preemergence
How it was run: as §2

[10] = test system: yellow nutsedge (Cyperus esculentus); test: Test C preemergence
How it was run: as §2

[11] = test system: duck salad (Heteranthera limosa); test: Test C flooded paddy test; settings: for Ducksalad plant response rating: Flooded Paddy, scale 0 to 100, 0 no effect, 100 complete control; for Plant response rating, Ducksalad: flooded paddy test, scale 0 to 100 (0 no effect, 100 complete control)
How it was run: (§3)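 Response on a 0-to-100 scale (no effect to complete control) was assessed by eye versus controls. Plants had reached 2 leaves when treated in flooded paddy conditions. The assessment took place after 12–14 days of greenhouse growth.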

rice (Oryza saliva) = test: Test C flooded paddy test; settings: for Rice plant response rating: Flooded Paddy, scale 0 to 100, 0 no effect, 100 complete control; for Plant response rating, Rice: flooded paddy test, scale 0 to 100 (0 no effect, 100 complete control)
How it was run: as §3

[12] = test system: smallflower flatsedge (Cyperus difformis); test: Test C flooded paddy test; settings: for Flatsedge plant response rating: Flooded Paddy, scale 0 to 100, 0 no effect, 100 complete control; for Plant response rating, Flatsedge: flooded paddy test, scale 0 to 100 (0 no effect, 100 complete control)
How it was run: as §3

[13] = test system: barnyardgrass (Echinochloa crus-galli); test: Test C flooded paddy test; settings: for Barnyardgrass plant response rating: Flooded Paddy, scale 0 to 100, 0 no effect, 100 complete control; for Plant response rating, Barnyardgrass: flooded paddy test, scale 0 to 100 (0 no effect, 100 complete control)
How it was run: as §3

[14] = Preemergence, Rate 500 g/ha, scale 0 to 100
[15] = Rate 62 g/ha, scale 0 to 100, 0 no effect, 100 complete control
[16] = preemergence, Rate 250 g/ha, visual evaluation after 12 to 14 days
[17] = preemergence, Rate 125 g/ha, scale 0 to 100, 0 no effect, 100 complete control

`CC(C)(C)c1ccn(C2CCN(c3cccc(C(F)(F)F)c3)C2=S)n1` (centres unmarked) [Compound 22] was tested, and the “Plant response rating, Velvetleaf” value ([1]; Preemergence, Rate 500 g/ha) was 0, the “Plant response rating, Velvetleaf” value ([1]; preemergence, Rate 125 g/ha) was 0 and the “Plant response rating, Barnyardgrass” value ([2]; Preemergence, Rate 500 g/ha) was 80. The “Plant response rating, Barnyardgrass” value ([2]; preemergence, Rate 125 g/ha) was 0, the “Plant response rating, Morningglory” value [3, 14] was 0 and the “Plant response rating, Morningglory” value [3, 15] was 0. The “Plant response rating (0 to 100), Morningglory” value [3, 16] was 0, the “Plant response rating, Morningglory” value [3, 17] was 0 and the “Plant response rating, Cupgrass, Woolly” value [4, 14] was 100. For the same molecule, the “Plant response rating, Cupgrass, Woolly” value [4, 15] was 40, the “Plant response rating (0 to 100), Cupgrass, Woolly” value [4, 16] was 100 and the “Plant response rating, Cupgrass, Woolly” value [4, 17] was 70. For the same molecule, the “Plant response rating, Johnsongrass” value [5, 14] was 40, the “Plant response rating, Johnsongrass” value [5, 15] was 20 and the “Plant response rating (0 to 100), Johnsongrass” value [5, 16] was 40. The “Plant response rating, Johnsongrass” value [5, 17] was 30, the “Plant response rating, Nightshade” value (Nightshade; [15]) was 0 and the “Plant response rating, Nightshade” value (Nightshade; Rate 125 g/ha, scale 0 to 100, 0 no effect, 100 complete control) was 0. The “Plant response rating, Nightshade” value (Nightshade; Rate 500 g/ha, scale 0 to 100) was 80, the “Plant response rating, Lambsquarters” value [6, 14] was 100 and the “Plant response rating, Lambsquarters” value [6, 15] was 100. The “Plant response rating (0 to 100), Lambsquarters” value [6, 16] was 100, the “Plant response rating, Lambsquarters” value [6, 17] was 100 and the “Plant response rating, Corn” value (corn (Zea mays); [14]) was 30. The “Plant response rating, Corn” value (corn (Zea mays); [15]) was 20, the “Plant response rating (0 to 100), Corn” value (corn (Zea mays); [16]) was 20 and the “Plant response rating, Corn” value (corn (Zea mays); [17]) was 20. For the same molecule, the “Plant response rating, Pigweed” value [7, 14] was 100, the “Plant response rating, Pigweed” value [7, 15] was 100 and the “Plant response rating (0 to 100), Pigweed” value [7, 16] was 50. The “Plant response rating, Pigweed” value [7, 17] was 50, the “Plant response rating, Surinam grass” value [8, 14] was 90 and the “Plant response rating, Surinam grass” value [8, 15] was 0. The “Plant response rating (0 to 100), Surinam grass” value [8, 16] was 60, the “Plant response rating, Surinam grass” value [8, 17] was 40 and the “Plant response rating, Foxtail, Giant” value [9, 14] was 100. The “Plant response rating, Foxtail, Giant” value [9, 15] was 30, the “Plant response rating (0 to 100), Foxtail, Giant” value [9, 16] was 0 and the “Plant response rating, Foxtail, Giant” value [9, 17] was 0. The “Plant response rating, Nutsedge” value [10, 14] was 20, the “Plant response rating, Nutsedge” value [10, 15] was 0 and the “Plant response rating (0 to 100), Nutsedge” value [10, 16] was 0. For the same molecule, the “Plant response rating, Nutsedge” value [10, 17] was 0, the “Ducksalad plant response rating” value ([11]; Rate 250 g/ha) was 80 and the “Ducksalad plant response rating” value ([11]; Rate 500 g/ha) was 100. The “Plant response rating, Ducksalad” value ([11]; Rate 62 g/ha) was 50, the “Plant response rating, Ducksalad” value ([11]; Rate 125 g/ha) was 80 and the “Rice plant response rating” value (rice (Oryza saliva); Rate 250 g/ha) was 20. For the same molecule, the “Rice plant response rating” value (rice (Oryza saliva); Rate 500 g/ha) was 40, the “Plant response rating, Rice” value (rice (Oryza saliva); Rate 62 g/ha) was 20 and the “Plant response rating, Rice” value (rice (Oryza saliva); Rate 125 g/ha) was 20. For the same molecule, the “Flatsedge plant response rating” value ([12]; Rate 250 g/ha) was 100, the “Flatsedge plant response rating” value ([12]; Rate 500 g/ha) was 100 and the “Plant response rating, Flatsedge” value ([12]; Rate 62 g/ha) was 100. The “Plant response rating, Flatsedge” value ([12]; Rate 125 g/ha) was 100, the “Barnyardgrass plant response rating” value ([13]; Rate 250 g/ha) was 100 and the “Barnyardgrass plant response rating” value ([13]; Rate 500 g/ha) was 100. For the same molecule, the “Plant response rating, Barnyardgrass” value ([13]; Rate 62 g/ha) was 40 and the “Plant response rating, Barnyardgrass” value ([13]; Rate 125 g/ha) was 80.
